Reference: ChEMBL document CHEMBL1201862, “PubChem BioAssay data set” (2004)
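In this assay, cells in 96-well plates receive the compound at five concentrations for 48 hours. Endpoints are linearly interpolated between the surrounding concentrations. GI50 is the concentration that inhibits growth by half.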 The source made the active and inactive calls. No stated cut-off is given here; in the data, active = GI50 up to about 1.1 µM and inactive = higher.

Tests used:
Experiment in all cases: growth of human tumour cells (NCI), 48 h
MOLT-4 = test system: MOLT-4
HOP-92 = test system: HOP-92
M14 = test system: M14
A498 = test system: A498
SW-620 = test system: SW-620
DMS-114 = test system: DMS-114
IGROV-1 = test system: IGROV-1
TK-10 = test system: TK-10
RXF 393 = test system: RXF 393
HOP-62 = test system: HOP-62
NCI-H522 = test system: NCI-H522
SK-OV-3 = test system: SK-OV-3
ACHN = test system: ACHN
T47D = test system: T47D
KM12 = test system: KM12
CCRF-CEM = test system: CCRF-CEM
CAKI-1 = test system: CAKI-1
SNB-78 = test system: SNB-78
BT-549 = test system: BT-549
DU-145 = test system: DU-145
HCT-15 = test system: HCT-15
Malme-3M = test system: Malme-3M
A549 = test system: A549
786-0 = test system: 786-0
DMS-273 = test system: DMS-273
SR = test system: SR
SF-268 = test system: SF-268
MCF7 = test system: MCF7
COLO 205 = test system: COLO 205
MDA-MB-435 = test system: MDA-MB-435
HCC 2998 = test system: HCC 2998
SK-MEL-2 = test system: SK-MEL-2
K562 = test system: K562
OVCAR-5 = test system: OVCAR-5
NCI-H460 = test system: NCI-H460
SNB-19 = test system: SNB-19
HT-29 = test system: HT-29
KM-20L2 = test system: KM-20L2
UO-31 = test system: UO-31
HOP-18 = test system: HOP-18
M19-MEL = test system: M19-MEL
SK-MEL-5 = test system: SK-MEL-5
SNB-75 = test system: SNB-75
HL-60 = test system: HL-60
Hs-578T = test system: Hs-578T
MDA-N = test system: MDA-N
PC-3 = test system: PC-3
UACC-257 = test system: UACC-257
OVCAR-3 = test system: OVCAR-3
U-251 = test system: U-251
HCT-116 = test system: HCT-116
NCI-H226 = test system: NCI-H226
DLD-1 = test system: DLD-1
EKVX = test system: EKVX
LOX IMVI = test system: LOX IMVI
SK-MEL-28 = test system: SK-MEL-28
MDA-MB-231 = test system: MDA-MB-231
SN12C = test system: SN12C
UACC-62 = test system: UACC-62
OVCAR-8 = test system: OVCAR-8
OVCAR-4 = test system: OVCAR-4
RPMI-8226 = test system: RPMI-8226
SF-295 = test system: SF-295
SF-539 = test system: SF-539
XF498 = test system: XF498
NCI-H23 = test system: NCI-H23
NCI/ADR-RES = test system: NCI/ADR-RES
LXFL 529 = test system: LXFL 529

## Cc1c2cnccc2c(C)c2c1c1ccccc1n2CCOC(=O)c1ccccc1
MOLT-4
  GI50: 5.25 µM (inactive)
HOP-92
  GI50: 27.7 µM (inactive)
M14
  GI50: 26.7 µM (inactive)
A498
  GI50: 1.75 µM (inactive)
SW-620
  GI50: 6.31 µM (inactive)
DMS-114
  GI50: 9.51 µM (inactive)
IGROV-1
  GI50: 9.44 µM (inactive)
TK-10
  GI50: 11.2 µM (inactive)
RXF 393
  GI50: 9.75 µM (inactive)
HOP-62
  GI50: 13.2 µM (inactive)
NCI-H522
  GI50: 11.4 µM (inactive)
SK-OV-3
  GI50: 5.33 µM (inactive)
ACHN
  GI50: 4.74 µM (inactive)
T47D
  GI50: 30 µM (inactive)
KM12
  GI50: 12.5 µM (inactive)
CCRF-CEM
  GI50: 7.52 µM (inactive)
CAKI-1
  GI50: 6.24 µM (inactive)
SNB-78
  GI50: 12.2 µM (inactive)
BT-549
  GI50: 33 µM (inactive)
DU-145
  GI50: 25.6 µM (inactive)
HCT-15
  GI50: 11.9 µM
Malme-3M
  GI50: 11.5 µM (inactive)
A549
  GI50: 10.8 µM (inactive)
786-0
  GI50: 11.5 µM (inactive)
DMS-273
  GI50: 4.86 µM (inactive)
SR
  GI50: 17.5 µM (inactive)
SF-268
  GI50: 11.4 µM (inactive)
MCF7
  GI50: 9.64 µM (inactive)
COLO 205
  GI50: 7.8 µM (inactive)
MDA-MB-435
  GI50: 14.4 µM (inactive)
HCC 2998
  GI50: 10.7 µM (inactive)
SK-MEL-2
  GI50: 12.5 µM (inactive)
K562
  GI50: 9.71 µM (inactive)
OVCAR-5
  GI50: 14.4 µM (inactive)
NCI-H460
  GI50: 3.45 µM (inactive)
SNB-19
  GI50: 10.7 µM (inactive)
HT-29
  GI50: 16.4 µM (inactive)
KM-20L2
  GI50: 6.44 µM (inactive)
UO-31
  GI50: 3.1 µM (inactive)
HOP-18
  GI50: 20.7 µM (inactive)
M19-MEL
  GI50: 13.9 µM (inactive)
SK-MEL-5
  GI50: 16.2 µM (inactive)
SNB-75
  GI50: 22.9 µM (inactive)
HL-60
  GI50: 5.85 µM (inactive)
Hs-578T
  GI50: 30.1 µM (inactive)
MDA-N
  GI50: 17.6 µM (inactive)
PC-3
  GI50: 28.6 µM (inactive)
UACC-257
  GI50: 12.4 µM (inactive)
OVCAR-3
  GI50: 12.2 µM (inactive)
U-251
  GI50: 15.7 µM (inactive)
HCT-116
  GI50: 5.41 µM (inactive)
NCI-H226
  GI50: 12.6 µM (inactive)
DLD-1
  GI50: 7.69 µM (inactive)
EKVX
  GI50: 13.3 µM (inactive)
LOX IMVI
  GI50: 8.38 µM (inactive)
SK-MEL-28
  GI50: 15.2 µM (inactive)
MDA-MB-231
  GI50: 38.9 µM (inactive)
SN12C
  GI50: 2.52 µM (inactive)
UACC-62
  GI50: 11.9 µM (inactive)
OVCAR-8
  GI50: 6.55 µM (inactive)
OVCAR-4
  GI50: 16.5 µM (inactive)
RPMI-8226
  GI50: 8.57 µM (inactive)
SF-295
  GI50: 11 µM (inactive)
SF-539
  GI50: 6.21 µM (inactive)
XF498
  GI50: 3.27 µM (inactive)
NCI-H23
  GI50: 15.7 µM (inactive)
NCI/ADR-RES
  GI50: 8.49 µM (inactive)

## Cc1cc2c(cc1C)N1Cc3c(ccc(C)c3C)N(C2)C1.Cc1cc2c(cc1C)N1Cc3cc(C)c(C)cc3N(C2)C1
MOLT-4
  GI50: > 100 µM (inactive)
M14
  GI50: > 100 µM (inactive)
SW-620
  GI50: > 100 µM (inactive)
DMS-114
  GI50: > 100 µM (inactive)
IGROV-1
  GI50: > 100 µM (inactive)
TK-10
  GI50: > 100 µM (inactive)
RXF 393
  GI50: 35.6 µM (inactive)
HOP-62
  GI50: 74.5 µM (inactive)
NCI-H522
  GI50: 53.6 µM (inactive)
SK-OV-3
  GI50: > 100 µM (inactive)
KM12
  GI50: > 100 µM (inactive)
CCRF-CEM
  GI50: > 100 µM (inactive)
SNB-78
  GI50: > 100 µM (inactive)
LXFL 529
  GI50: > 100 µM (inactive)
A549
  GI50: > 100 µM (inactive)
786-0
  GI50: > 100 µM (inactive)
DMS-273
  GI50: > 100 µM (inactive)
SF-268
  GI50: > 100 µM (inactive)
COLO 205
  GI50: > 100 µM (inactive)
HCC 2998
  GI50: > 100 µM (inactive)
K562
  GI50: 70.8 µM (inactive)
NCI-H460
  GI50: > 100 µM (inactive)
SNB-19
  GI50: > 100 µM (inactive)
HT-29
  GI50: > 100 µM (inactive)
KM-20L2
  GI50: 52 µM (inactive)
HOP-18
  GI50: > 100 µM (inactive)
M19-MEL
  GI50: > 100 µM (inactive)
SK-MEL-5
  GI50: > 100 µM (inactive)
SNB-75
  GI50: > 100 µM (inactive)
HL-60
  GI50: 35.2 µM (inactive)
OVCAR-3
  GI50: > 100 µM (inactive)
U-251
  GI50: > 100 µM (inactive)
HCT-116
  GI50: > 100 µM (inactive)
NCI-H226
  GI50: > 100 µM (inactive)
DLD-1
  GI50: > 100 µM (inactive)
EKVX
  GI50: > 100 µM (inactive)
LOX IMVI
  GI50: 86.7 µM (inactive)
SK-MEL-28
  GI50: > 100 µM (inactive)
SN12C
  GI50: 10 µM (inactive)
UACC-62
  GI50: > 100 µM (inactive)
OVCAR-8
  GI50: > 100 µM (inactive)
OVCAR-4
  GI50: > 100 µM (inactive)
RPMI-8226
  GI50: > 100 µM (inactive)
SF-295
  GI50: 89.5 µM (inactive)
SF-539
  GI50: > 100 µM (inactive)
XF498
  GI50: > 100 µM (inactive)
NCI-H23
  GI50: 92.5 µM (inactive)

## N#Cc1cccc(N2C(=O)c3ccc(C(=O)c4ccc5c(c4)C(=O)N(c4cccc(C#N)c4)C5=O)cc3C2=O)c1
MOLT-4
  GI50: > 100 µM (inactive)
HOP-92
  GI50: 59 µM (inactive)
M14
  GI50: > 100 µM (inactive)
A498
  GI50: > 100 µM (inactive)
SW-620
  GI50: > 100 µM (inactive)
DMS-114
  GI50: > 100 µM (inactive)
IGROV-1
  GI50: > 100 µM (inactive)
TK-10
  GI50: > 100 µM (inactive)
RXF 393
  GI50: > 100 µM (inactive)
HOP-62
  GI50: > 100 µM (inactive)
NCI-H522
  GI50: > 100 µM (inactive)
SK-OV-3
  GI50: > 100 µM (inactive)
KM12
  GI50: > 100 µM (inactive)
CCRF-CEM
  GI50: > 100 µM (inactive)
CAKI-1
  GI50: > 100 µM (inactive)
SNB-78
  GI50: > 100 µM (inactive)
HCT-15
  GI50: > 100 µM
LXFL 529
  GI50: > 100 µM (inactive)
Malme-3M
  GI50: > 100 µM (inactive)
A549
  GI50: > 100 µM (inactive)
786-0
  GI50: 64.4 µM (inactive)
DMS-273
  GI50: > 100 µM (inactive)
SF-268
  GI50: > 100 µM (inactive)
COLO 205
  GI50: > 100 µM (inactive)
SK-MEL-2
  GI50: > 100 µM (inactive)
K562
  GI50: > 100 µM (inactive)
OVCAR-5
  GI50: > 100 µM (inactive)
NCI-H460
  GI50: > 100 µM (inactive)
SNB-19
  GI50: > 100 µM (inactive)
HT-29
  GI50: > 100 µM (inactive)
KM-20L2
  GI50: > 100 µM (inactive)
UO-31
  GI50: > 100 µM (inactive)
HOP-18
  GI50: > 100 µM (inactive)
M19-MEL
  GI50: > 100 µM (inactive)
SK-MEL-5
  GI50: > 100 µM (inactive)
SNB-75
  GI50: 35.6 µM (inactive)
HL-60
  GI50: > 100 µM (inactive)
UACC-257
  GI50: > 100 µM (inactive)
OVCAR-3
  GI50: > 100 µM (inactive)
U-251
  GI50: 35.8 µM (inactive)
HCT-116
  GI50: > 100 µM (inactive)
NCI-H226
  GI50: > 100 µM (inactive)
DLD-1
  GI50: > 100 µM (inactive)
EKVX
  GI50: > 100 µM (inactive)
LOX IMVI
  GI50: > 100 µM (inactive)
SN12C
  GI50: > 100 µM (inactive)
UACC-62
  GI50: > 100 µM (inactive)
OVCAR-8
  GI50: > 100 µM (inactive)
OVCAR-4
  GI50: > 100 µM (inactive)
RPMI-8226
  GI50: > 100 µM (inactive)
SF-295
  GI50: > 100 µM (inactive)
SF-539
  GI50: > 100 µM (inactive)
XF498
  GI50: > 100 µM (inactive)
NCI-H23
  GI50: > 100 µM (inactive)
